These results are taken from PubChem BioAssay (NCI).

Where “and” joins values, the source holds several entries; their conditions need not be identical. Identical values can stand only once.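 Each compound was tested at five concentrations against cells in 96-well plates for 48 hours. At the GI50, growth is halved. TGI: concentration producing complete growth inhibition.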

Test systems include RPMI-8226 leukemia; SK-MEL-5 melanoma; UACC-62 melanoma; U251 CNS; NCI-H23 lung; HT29 colon; OVCAR-8 ovarian; ACHN renal; HOP-62 NSCLC; K-562 leukemia.
Holding throughout (experiment): NCI tumour cell line growth inhibition, 48 h

Consider `CC(C)(C)c1cc(C=C(C#N)C#N)cc(C(C)(C)C)c1O`, for which the GI50 with RPMI-8226 leukemia is 0.101 µM and 0.0877 µM; in the assay on SK-MEL-5 melanoma it was 0.298 µM; in the assay on U251 CNS it was 0.359 µM; with NCI-H23 lung it was 0.194 µM; in the assay with HT29 colon it was 0.33 µM; with OVCAR-8 ovarian, 0.355 µM. The TGI is 3.07 µM with SK-MEL-5 melanoma; 8.29 µM and 19.3 µM in the assay with UACC-62 melanoma; 23.1 µM and 11.5 µM in the assay with U251 CNS; 7.81 µM and 10.6 µM in the assay with HT29 colon; 23.6 µM and 48.1 µM in the assay on OVCAR-8 ovarian; 20.2 µM with ACHN renal. For the same compound, the TGI in the assay on HOP-62 NSCLC was 6.87 µM and 1.65 µM; in the assay with K-562 leukemia, over 354 µM.

In the case of `COc1ccc(C(=O)NCCN(C)C)c2nc3ccccc3nc12`, the TGI is over 100 µM in the assay with RPMI-8226 leukemia; over 36.6 µM with SK-MEL-5 melanoma; 17.8 µM in the assay on UACC-62 melanoma; 40.9 µM in the assay with U251 CNS; 17.9 µM in the assay with NCI-H23 lung; 15.1 µM in the assay with HT29 colon. Also, the TGI with OVCAR-8 ovarian was over 41.5 µM; in the assay on ACHN renal, over 100 µM; with HOP-62 NSCLC, 9.06 µM; with K-562 leukemia it was 5.72 µM.

With `Cc1cc(I)cc(CN(C)CCCN2CCCC2)c1O`, the GI50 in the assay on RPMI-8226 leukemia is 15.6 µM; in the assay with SK-MEL-5 melanoma, 13.1 µM; in the assay on UACC-62 melanoma it was 5.47 µM; with U251 CNS it was 19.4 µM; in the assay on NCI-H23 lung, 30 µM; in the assay on HT29 colon, 9.52 µM. For the same compound, the GI50 was 45.3 µM in the assay with OVCAR-8 ovarian, 23.1 µM in the assay with ACHN renal, 16.4 µM in the assay on HOP-62 NSCLC and 14.5 µM in the assay on K-562 leukemia. The TGI was 37.5 µM in the assay with RPMI-8226 leukemia; 26 µM in the assay with SK-MEL-5 melanoma; 13.1 µM with UACC-62 melanoma; 49.5 µM in the assay on U251 CNS; over 100 µM in the assay with NCI-H23 lung; 24.4 µM with HT29 colon. Also, the TGI was over 100 µM in the assay with OVCAR-8 ovarian, 65.4 µM with ACHN renal, 34.8 µM in the assay with HOP-62 NSCLC and 33.2 µM with K-562 leukemia.

For the compound `CC(C)(C)C(=O)[CH-]C(=O)C(C)(C)C.CC(C)(C)C(=O)[CH-]C(=O)C(C)(C)C.CN(C)c1ccc([O-])cc1.CN(C)c1ccc([O-])cc1.[Ti+4]`, the GI50 with RPMI-8226 leukemia was 52.7 µM; with SK-MEL-5 melanoma, over 100 µM; in the assay with UACC-62 melanoma, over 100 µM; in the assay on U251 CNS, 43.1 µM; in the assay on NCI-H23 lung it was over 100 µM; in the assay with HT29 colon, over 100 µM. The GI50 in the assay on OVCAR-8 ovarian, in the assay on ACHN renal, with HOP-62 NSCLC and in the assay with K-562 leukemia was over 100 µM in each case. In addition, the TGI with RPMI-8226 leukemia, with SK-MEL-5 melanoma, with UACC-62 melanoma, in the assay on U251 CNS, with NCI-H23 lung and in the assay on HT29 colon was over 100 µM in each case. Moreover, the TGI in the assay with OVCAR-8 ovarian, with ACHN renal, in the assay on HOP-62 NSCLC and in the assay with K-562 leukemia was over 100 µM throughout.

Take `O=c1oc2ccccc2[n+]([O-])c1-c1ccccc1`: the TGI in the assay on RPMI-8226 leukemia, in the assay with SK-MEL-5 melanoma, in the assay on UACC-62 melanoma, in the assay with U251 CNS, with NCI-H23 lung and with HT29 colon was over 100 µM each time. Moreover, the TGI with OVCAR-8 ovarian, in the assay with ACHN renal, in the assay with HOP-62 NSCLC and in the assay on K-562 leukemia was over 100 µM each time.

For `O=C(O)c1ccccc1/C=N/N=C1c2ccccc2-c2ccccc21`, the TGI was 48.2 µM in the assay on RPMI-8226 leukemia; over 100 µM in the assay on SK-MEL-5 melanoma; over 100 µM in the assay on UACC-62 melanoma; 55.6 µM in the assay with U251 CNS; over 100 µM in the assay on NCI-H23 lung; over 100 µM in the assay on HT29 colon. Besides, the TGI in the assay with OVCAR-8 ovarian, in the assay on ACHN renal, in the assay on HOP-62 NSCLC and with K-562 leukemia was over 100 µM in each case.

On to `COc1ccc(OC)c(Cn2cc3c(c2-c2ccccc2)CCc2cnoc2-3)c1`, for which the GI50 in the assay with RPMI-8226 leukemia is 6.54 µM; in the assay on SK-MEL-5 melanoma, 3.7 µM; in the assay with UACC-62 melanoma it was 3.8 µM; in the assay on U251 CNS, 5.38 µM; in the assay on NCI-H23 lung it was 7.99 µM; in the assay with HT29 colon, 3.15 µM. In addition, the GI50 is 19.2 µM in the assay with OVCAR-8 ovarian, 6.89 µM in the assay on ACHN renal, 9.13 µM with HOP-62 NSCLC and 2.67 µM in the assay on K-562 leukemia. In addition, the TGI is over 100 µM in the assay on RPMI-8226 leukemia; 40.3 µM in the assay on SK-MEL-5 melanoma; over 100 µM in the assay on UACC-62 melanoma; over 100 µM in the assay with U251 CNS; over 100 µM in the assay with NCI-H23 lung; over 100 µM in the assay on HT29 colon. Besides, the TGI in the assay on OVCAR-8 ovarian, in the assay on ACHN renal, with HOP-62 NSCLC and with K-562 leukemia was over 100 µM in each case.

In the case of `O=C(N[C@@H](C[Se][Se]C[C@H](NC(=O)c1ccc(Br)cc1F)C(=O)O)C(=O)O)c1ccc(Br)cc1F`, the GI50 with RPMI-8226 leukemia, in the assay with SK-MEL-5 melanoma, in the assay on UACC-62 melanoma, in the assay with U251 CNS, with NCI-H23 lung and with HT29 colon was over 100 µM each time. The GI50 in the assay on OVCAR-8 ovarian, with ACHN renal, with HOP-62 NSCLC and in the assay with K-562 leukemia was over 100 µM throughout. The TGI with RPMI-8226 leukemia, in the assay on SK-MEL-5 melanoma, in the assay with UACC-62 melanoma, in the assay on U251 CNS, with NCI-H23 lung and in the assay with HT29 colon was over 100 µM each time. For the same compound, the TGI with OVCAR-8 ovarian, in the assay with ACHN renal, in the assay on HOP-62 NSCLC and in the assay on K-562 leukemia was over 100 µM each time.

`O=C(/C=C/c1ccccc1)CC(=O)CCC(=O)Nc1ccc(Cl)cc1`: the TGI in the assay with RPMI-8226 leukemia, with SK-MEL-5 melanoma, in the assay with UACC-62 melanoma, in the assay on U251 CNS, with NCI-H23 lung and in the assay with HT29 colon was over 100 µM each time. In addition, the TGI in the assay on OVCAR-8 ovarian, in the assay with ACHN renal, in the assay on HOP-62 NSCLC and with K-562 leukemia was over 100 µM in each case.
